{"source": "ChEMBL document CHEMBL3785036", "about": "(J Pharm Sci, 1974)", "type_in_all_cases": "ADME, organism-based", "key": {"[1]": {"experiment": "Drug excretion in human subject slow inactivator assessed as sum of isoniazid plus hydrazones, acetylisoniazid, isonicotinic acid and isonicotinuric acid level in urine at 681 mg, iv infused at constant rate 5.4 min measured 181 mins after start of drug injection by colorimetry", "conditions": "in vivo"}, "[2]": {"experiment": "Drug excretion in human subject slow inactivator assessed as total isonicotinoyl compound level in urine at 681 mg, iv infused at constant rate 5.4 min measured 150 mins after start of drug injection by colorimetry", "conditions": "in vivo, 2.5 h"}, "[3]": {"experiment": "Drug excretion in human rapid inactivators urine assessed as isoniazid plus hydrazones level at 1 g, iv by colorimetry", "conditions": "in vivo"}, "[4]": {"experiment": "Drug excretion in human slow inactivators urine assessed as isoniazid plus hydrazones level at 1 g, iv by colorimetry", "conditions": "in vivo"}, "[5]": {"experiment": "Drug excretion in human subject rapid inactivator assessed as total isonicotinoyl compound level in urine at 670 mg, iv infused at constant rate 5.2min measured 400 mins after start of drug injection by colorimetry", "conditions": "in vivo"}, "[6]": {"experiment": "Drug excretion in human subject slow inactivator assessed as total isonicotinoyl compound level in urine at 681 mg, iv infused at constant rate 5.4 min measured 677 mins after start of drug injection by colorimetry", "conditions": "in vivo"}, "[7]": {"experiment": "Drug excretion in human subject rapid inactivator assessed as sum of isoniazid plus hydrazones, acetylisoniazid, isonicotinic acid and isonicotinuric acid level in urine at 670 mg, iv infused at constant rate 5.2min measured 227 mins after start of drug injection by colorimetry", "conditions": "in vivo"}, "[8]": {"experiment": "Drug excretion in human subject slow inactivator assessed as total isonicotinoyl compound level in urine at 681 mg, iv infused at constant rate 5.4 min measured 586 mins after start of drug injection by colorimetry", "conditions": "in vivo"}, "[9]": {"experiment": "Drug excretion in human subject rapid inactivator assessed as total isonicotinoyl compound level in urine at 670 mg, iv infused at constant rate 5.2min measured 94 mins after start of drug injection by colorimetry", "conditions": "in vivo"}, "[10]": {"experiment": "Drug excretion in human subject rapid inactivator assessed as total isonicotinoyl compound level in urine at 670 mg, iv infused at constant rate 5.2min measured 158 mins after start of drug injection by colorimetry", "conditions": "in vivo"}, "[11]": {"experiment": "Drug excretion in human subject rapid inactivator assessed as total isonicotinoyl compound level in urine at 670 mg, iv infused at constant rate 5.2min measured 259 mins after start of drug injection by colorimetry", "conditions": "in vivo"}, "[12]": {"experiment": "Drug excretion in human subject slow inactivator assessed as sum of isoniazid plus hydrazones, acetylisoniazid, isonicotinic acid and isonicotinuric acid level in urine at 681 mg, iv infused at constant rate 5.4 min measured 276.3 mins after start of drug injection by colorimetry", "conditions": "in vivo, 4.605 h"}, "[13]": {"experiment": "Drug excretion in human subject slow inactivator assessed as total isonicotinoyl compound level in urine at 681 mg, iv infused at constant rate 5.4 min measured 370.3 mins after start of drug injection by colorimetry", "conditions": "in vivo, 6.17167 h"}, "[14]": {"experiment": "Drug excretion in human subject rapid inactivator assessed as total isonicotinoyl compound level in urine at 670 mg, iv infused at constant rate 5.2min measured 227 mins after start of drug injection by colorimetry", "conditions": "in vivo"}, "[15]": {"experiment": "Drug excretion in human subject rapid inactivator assessed as sum of isoniazid plus hydrazones, acetylisoniazid, isonicotinic acid and isonicotinuric acid level in urine at 670 mg, iv infused at constant rate 5.2min measured 126 mins after start of drug injection by colorimetry", "conditions": "in vivo, 2.1 h"}, "[16]": {"experiment": "Drug excretion in human subject slow inactivator assessed as total isonicotinoyl compound level in urine at 681 mg, iv infused at constant rate 5.4 min measured 710 mins after start of drug injection by colorimetry", "conditions": "in vivo"}, "[17]": {"experiment": "Drug excretion in human subject slow inactivator assessed as total isonicotinoyl compound level in urine at 681 mg, iv infused at constant rate 5.4 min measured 496 mins after start of drug injection by colorimetry", "conditions": "in vivo"}, "[18]": {"experiment": "Drug metabolism in human slow inactivators assessed as excretion of acetylisoniazid in urine at 1 g, iv by colorimetry", "conditions": "in vivo"}, "[19]": {"experiment": "Drug excretion in human subject slow inactivator assessed as sum of isoniazid plus hydrazones, acetylisoniazid, isonicotinic acid and isonicotinuric acid level in urine at 681 mg, iv infused at constant rate 5.4 min measured 613 mins after start of drug injection by colorimetry", "conditions": "in vivo"}, "[20]": {"experiment": "Drug metabolism in human slow inactivators assessed as excretion of pyruvic acid isonicotinoylhydrazone in urine at 1 g, iv by colorimetry", "conditions": "in vivo"}, "[21]": {"experiment": "Drug metabolism in human slow inactivators assessed as excretion of alpha-ketoglutaric acid isonicotinoylhydrazone in urine at 1 g, iv by colorimetry", "conditions": "in vivo"}, "[22]": {"experiment": "Drug excretion in human subject slow inactivator assessed as total isonicotinoyl compound level in urine at 681 mg, iv infused at constant rate 5.4 min measured 430.2 mins after start of drug injection by colorimetry", "conditions": "in vivo, 7.17 h"}, "[23]": {"experiment": "Drug excretion in human subject slow inactivator assessed as total isonicotinoyl compound level in urine at 681 mg, iv infused at constant rate 5.4 min measured 35.5 mins after start of drug injection by colorimetry", "conditions": "in vivo"}, "[24]": {"experiment": "Drug excretion in human subject slow inactivator assessed as sum of isoniazid plus hydrazones, acetylisoniazid, isonicotinic acid and isonicotinuric acid level in urine at 681 mg, iv infused at constant rate 5.4 min measured 524 mins after start of drug injection by colorimetry", "conditions": "in vivo"}, "[25]": {"experiment": "Drug excretion in human subject rapid inactivator assessed as sum of isoniazid plus hydrazones, acetylisoniazid, isonicotinic acid and isonicotinuric acid level in urine at 670 mg, iv infused at constant rate 5.2min measured 426 mins after start of drug injection by colorimetry", "conditions": "in vivo"}, "[26]": {"experiment": "Drug excretion in human subject rapid inactivator assessed as total isonicotinoyl compound level in urine at 670 mg, iv infused at constant rate 5.2min measured 296 mins after start of drug injection by colorimetry", "conditions": "in vivo"}, "[27]": {"experiment": "Drug excretion in human subject slow inactivator assessed as total isonicotinoyl compound level in urine at 681 mg, iv infused at constant rate 5.4 min measured 396 mins after start of drug injection by colorimetry", "conditions": "in vivo, 6.6 h"}, "[28]": {"experiment": "Drug excretion in human subject slow inactivator assessed as sum of isoniazid plus hydrazones, acetylisoniazid, isonicotinic acid and isonicotinuric acid level in urine at 681 mg, iv infused at constant rate 5.4 min measured 586 mins after start of drug injection by colorimetry", "conditions": "in vivo"}, "[29]": {"experiment": "Drug excretion in human subject rapid inactivator assessed as total isonicotinoyl compound level in urine at 670 mg, iv infused at constant rate 5.2min measured 486 mins after start of drug injection by colorimetry", "conditions": "in vivo, 8.1 h"}, "[30]": {"experiment": "Drug excretion in human subject slow inactivator assessed as total isonicotinoyl compound level in urine at 681 mg, iv infused at constant rate 5.4 min measured 466 mins after start of drug injection by colorimetry", "conditions": "in vivo"}, "[31]": {"experiment": "Drug excretion in human subject slow inactivator assessed as sum of isoniazid plus hydrazones, acetylisoniazid, isonicotinic acid and isonicotinuric acid level in urine at 681 mg, iv infused at constant rate 5.4 min measured 648 mins after start of drug injection by colorimetry", "conditions": "in vivo"}, "[32]": {"experiment": "Drug excretion in human subject slow inactivator assessed as sum of isoniazid plus hydrazones, acetylisoniazid, isonicotinic acid and isonicotinuric acid level in urine at 681 mg, iv infused at constant rate 5.4 min measured 466 mins after start of drug injection by colorimetry", "conditions": "in vivo"}}, "data": [{"smiles": "NNC(=O)c1ccncc1", "note": "[ISONIAZID]", "values": [{"measurement": "Drug excretion", "setting": "[1]", "result": 34.76, "unit": "mg"}, {"measurement": "Drug excretion", "setting": "[2]", "result": 38.1, "unit": "mg"}, {"measurement": "Drug excretion", "setting": "[3]", "result": 99.6, "unit": "%"}, {"measurement": "Drug excretion", "setting": "[4]", "result": 98, "unit": "%"}, {"measurement": "Drug excretion", "setting": "[5]", "result": 18.5, "unit": "mg"}, {"measurement": "Drug excretion", "setting": "[6]", "result": 10.6, "unit": "mg"}, {"measurement": "Drug excretion", "setting": "[7]", "result": 38.5, "unit": "mg"}, {"measurement": "Drug excretion", "setting": "[8]", "result": 12.7, "unit": "mg"}, {"measurement": "Drug excretion", "setting": "[9]", "result": 51.8, "unit": "mg"}, {"measurement": "Drug excretion", "setting": "[10]", "result": 51.7, "unit": "mg"}, {"measurement": "Drug excretion", "setting": "[11]", "result": 39.7, "unit": "mg"}, {"measurement": "Drug excretion", "setting": "[12]", "result": 32.59, "unit": "mg"}, {"measurement": "Drug excretion", "setting": "[13]", "result": 26.6, "unit": "mg"}, {"measurement": "Drug excretion", "setting": "[14]", "result": 38.8, "unit": "mg"}, {"measurement": "Drug excretion", "setting": "[15]", "result": 42.3, "unit": "mg"}, {"measurement": "Drug excretion", "setting": "[16]", "result": 9.25, "unit": "mg"}, {"measurement": "Drug excretion", "setting": "[17]", "result": 13.5, "unit": "mg"}, {"measurement": "Drug metabolism", "setting": "[18]", "result": 34.3, "unit": "%molar"}, {"measurement": "Drug excretion", "setting": "[19]", "result": 11.202, "unit": "mg"}, {"measurement": "Drug metabolism", "setting": "[20]", "result": 13.9, "unit": "%molar"}, {"measurement": "Drug metabolism", "setting": "[21]", "result": 6.9, "unit": "%molar"}, {"measurement": "Drug excretion", "setting": "[22]", "result": 20, "unit": "mg"}, {"measurement": "Drug excretion", "setting": "[23]", "result": 50.1, "unit": "mg"}, {"measurement": "Drug excretion", "setting": "[24]", "result": 11.32, "unit": "mg"}, {"measurement": "Drug excretion", "setting": "[25]", "result": 16.5, "unit": "mg"}, {"measurement": "Drug excretion", "setting": "[26]", "result": 42.1, "unit": "mg"}, {"measurement": "Drug excretion", "setting": "[27]", "result": 16.5, "unit": "mg"}, {"measurement": "Drug excretion", "setting": "[28]", "result": 13.18, "unit": "mg"}, {"measurement": "Drug excretion", "setting": "[29]", "result": 12.5, "unit": "mg"}, {"measurement": "Drug excretion", "setting": "[30]", "result": 20, "unit": "mg"}, {"measurement": "Drug excretion", "setting": "[31]", "result": 12.82, "unit": "mg"}, {"measurement": "Drug excretion", "setting": "[32]", "result": 20.23, "unit": "mg"}]}]}
